This passage reports ΔTm and binding constant results from PMC9958891 (2023).

The test system of assay [1] is 5'-FAM-c-myc-TAMRA-3' (c-myc G4 DNA, FRET) (DNA, G4) TGAGGGTGGGTAGGGTGGGTAA
Kind of assay: FRET melting. Conditions: K+ 100 mM, Na+ (10 mM Na3AsO4); 10 mM Tris-HCl pH 7.4; 0.2 μM DNA; compound concentration not stated; value per abstract, b23 order differs.

The subject of assay [2] is c-myc Pu22 (c-myc G4 DNA) (DNA, G4) TGAGGGTGGGTAGGGTGGGTAA
Description: UV-vis absorption titration. Conditions: K+ 100 mM; 10 mM Tris-HCl, pH 7.2, room temperature; 20 μM complex.

`COc1ccc(CCc2cc(OC)c(OC)c(OC)c2)cc1OCCCCn1c(-c2ccccc2C(F)(F)F)nc2c3cccnc3c3ncccc3c21.[Ru+2].c1cnc2c(c1)ccc1cccnc12.c1cnc2c(c1)ccc1cccnc12`: the ΔTm in assay [1] was ~ 15.5 °C.
On to `COc1ccc(CCc2cc(OC)c(OC)c(OC)c2)cc1OCCCCn1c(-c2ccc(C(F)(F)F)cc2)nc2c3cccnc3c3ncccc3c21.[Ru+2].c1cnc2c(c1)ccc1cccnc12.c1cnc2c(c1)ccc1cccnc12`, for which the ΔTm in assay [1] is ~ 16.5 °C. For the same molecule, the binding constant in assay [2] is on record as ~ 2.05 × 10^7 M^−1.
